The text below walks through data of US7211417B2, “Antibiotic P175-A and semisynthetic derivatives thereof” (priority 2003, dated 2007).

As usually defined, the MIC is the smallest concentration in the dilution series that meets the test's criterion for growth inhibition.

Values after ≈ are worked out from the molar mass of the structure shown. Where two headings read alike, the source gives them in different places.

What all share (format): cell-based
One experiment relates to Enterococcus faecalis. As to the kind of experiment: MIC by broth dilution, Enterococcus faecalis. As for the experimental part: (§1) The minimal inhibitory concentration (MIC), the lowest concentration of the antibiotic which inhibits growth of the test organism, is determined by the broth dilution method using Muller-Hinton II […] (Baltimore Biological Laboratories) following the recommendations of the National Committee for Clinical Laboratory Standards [Methods for dilution antimicrobial susceptibility tests for bacteria that grow aerobically. Approved standard M7-A2. National Committee for Clinical Laboratory Standards, Villanova, Pa.].
(§2) An inoculum level of 5×10^5 CFU/ml, and a range of antibiotic concentrations (64–0.06 μg/ml) is used. The MIC is determined after the microtiter plates are incubated for 18 hours at 35° C. in an ambient air incubator. The test organisms comprise a spectrum of the Gram-positive bacteria Staphylococcus aureus, Streptococcus pneumoniae, and Enterococcus sp., the Gram-negative bacteria Escherichia coli, and the yeast Candida albicans. These organisms include recent clinical isolates that are resistant to methicillin and vancomycin.
(Dilution methods test growth across graded concentrations, often in twofold steps.)

The test system of experiment [1] is Streptococcus pneumoniae GC 1894. As to the kind of experiment: MIC by broth dilution, Streptococcus pneumoniae GC 1894. As for the experimental part:
as §1, §2

Another experiment relates to Candida albicans. The experiment is described as follows: MIC by broth dilution, Candida albicans. As to the method: as §1, §2
The next experiment has as its system Bacillus subtilis. The experiment is described as follows: MIC by broth dilution, Bacillus subtilis.
A further experiment relates to Escherichia coli. The experiment is described as follows: MIC by broth dilution, Escherichia coli. As for the experimental part:
as §1, §2

The next experiment has as its system Escherichia coli (imp). As to the kind of experiment: MIC by broth dilution, Escherichia coli (imp). As to the method: as §1, §2
A further experiment concerns Staphylococcus aureus. The experiment is described as follows: MIC by broth dilution, Staphylococcus aureus. As for the experimental part: as §1, §2
[2] abbreviates: 2 strains, including a vancomycin-resistant strain (VRE), 18 hours at 35° C., read-out: MIC.
Where [3] appears, read: Streptococcus pneumoniae, GC1894, Streptococcus pneumoniae GC 1894* (5% LHB), read-out: MIC.
[4] abbreviates: Streptococcus pneumoniae, GC1894, Streptococcus pneumoniae GC 1894+ (THY), read-out: MIC.
[5] abbreviates: 3 strains, including a methicillin-resistant strain (MRSA), 18 hours at 35° C., read-out: MIC.

On to `CCOC(=O)C1CN(C(=O)Cn2c(C)cc3c(=O)c4ccc5c(OC)c6c(=O)c7c(O)cccc7c(=O)c6c(O)c5c4c(=O)c3c2=O)C(C)C(=O)N1` (centres unmarked) [Example 5, P175-A ethyl ester], for which the MIC is 0.25 to 0.5 µg/mL (≈ 0.353 to 0.707 µM) in the experiment on Enterococcus faecalis (setting [2]); 0.5 µg/mL (≈ 0.707 µM) in experiment [1] (setting [3]); 1 µg/mL (≈ 1.41 µM) in experiment [1] (setting [4]); more than 64 µg/mL with Candida albicans (read-out: MIC); 0.25 µg/mL (≈ 0.353 µM) in the experiment with Bacillus subtilis (read-out: MIC); more than 64 µg/mL with Escherichia coli (read-out: MIC). Also, the figures for the MIC in the experiment on Escherichia coli (imp) and in the experiment on Staphylococcus aureus (setting [5]) were 16 µg/mL (≈ 22.6 µM) and 0.06 to 0.12 µg/mL (≈ 0.0848 to 0.17 µM), respectively.
Consider `COc1c2ccc3c(=O)c4cc(C)n(CC(=O)N5CC(C(=O)OCc6ccccc6)NC(=O)C5C)c(=O)c4c(=O)c3c2c(O)c2c(=O)c3cccc(O)c3c(=O)c12` (centres unmarked) [Example 7, P175-A benzyl ester], for which the MIC with Enterococcus faecalis (setting [2]) was 2 to 8 µg/mL (≈ 2.6 to 10.4 µM); in experiment [1] (setting [3]), 0.5 µg/mL (≈ 0.65 µM); in experiment [1] (setting [4]) it was 0.25 µg/mL (≈ 0.325 µM); with Candida albicans (read-out: MIC), more than 64 µg/mL; with Bacillus subtilis (read-out: MIC), 4 µg/mL (≈ 5.2 µM); with Escherichia coli (read-out: MIC), more than 64 µg/mL. The results for the MIC in the experiment on Escherichia coli (imp) and in the experiment with Staphylococcus aureus (setting [5]) were 32 µg/mL (≈ 41.6 µM) and 0.12 to 2 µg/mL (≈ 0.156 to 2.6 µM), respectively.
For `COC(=O)C1CN(C(=O)Cn2c(C)cc3c(=O)c4ccc5c(OC)c6c(=O)c7c(O)cccc7c(=O)c6c(O)c5c4c(=O)c3c2=O)C(C)C(=O)N1` (centres unmarked) [Example 4, P175-A methyl ester], the MIC was less than 0.06 µg/mL in the experiment on Enterococcus faecalis (setting [2]); 1 µg/mL (≈ 1.44 µM) in experiment [1] (setting [3]); 2 µg/mL (≈ 2.88 µM) in experiment [1] (setting [4]); more than 64 µg/mL in the experiment with Candida albicans (read-out: MIC); 0.12 µg/mL (≈ 0.173 µM) with Bacillus subtilis (read-out: MIC); more than 64 µg/mL in the experiment with Escherichia coli (read-out: MIC). The MIC was 4 µg/mL (≈ 5.77 µM) against Escherichia coli (imp) and 0.06 to 0.12 µg/mL (≈ 0.0865 to 0.173 µM) with Staphylococcus aureus (setting [5]).
`COc1c2ccc3c(=O)c4cc(C)n(CC(=O)N5CC(C(=O)OC(C)C)NC(=O)C5C)c(=O)c4c(=O)c3c2c(O)c2c(=O)c3cccc(O)c3c(=O)c12` (centres unmarked) [Example 6, P175-A isopropyl ester]: the MIC is 4 µg/mL (≈ 5.54 µM) with Enterococcus faecalis (setting [2]); 2 µg/mL (≈ 2.77 µM) in experiment [1] (setting [3]); 4 µg/mL (≈ 5.54 µM) in experiment [1] (setting [4]); more than 64 µg/mL with Candida albicans (read-out: MIC); 8 µg/mL (≈ 11.1 µM) with Bacillus subtilis (read-out: MIC); more than 64 µg/mL in the experiment with Escherichia coli (read-out: MIC). The minimal inhibitory concentration (MIC) with Escherichia coli (imp) is 16 µg/mL (≈ 22.2 µM); in the experiment on Staphylococcus aureus (setting [5]), 1 to 4 µg/mL (≈ 1.39 to 5.54 µM).
Regarding `COC(=O)COC(=O)C1CN(C(=O)Cn2c(C)cc3c(=O)c4ccc5c(OC)c6c(=O)c7c(O)cccc7c(=O)c6c(O)c5c4c(=O)c3c2=O)C(C)C(=O)N1` (centres unmarked) [Example 8A], the minimum inhibitory concentration (MIC) was 0.5 to 1 µg/mL (≈ 0.665 to 1.33 µM) in the experiment on Enterococcus faecalis (VRE, 18 h); 64 µg/mL (≈ 85.1 µM) in experiment [1] (Streptococcus pneumoniae GC 1894+ (THY)); 64 µg/mL (≈ 85.1 µM) in experiment [1] (Streptococcus pneumoniae, GC1894); more than 64 µg/mL against Candida albicans; 1 µg/mL (≈ 1.33 µM) against Bacillus subtilis; more than 64 µg/mL with Escherichia coli. In addition, the minimal inhibitory concentration (MIC) against Escherichia coli (imp) was 8 µg/mL (≈ 10.6 µM); against Staphylococcus aureus (MRSA, 18 h), 0.5 to 2 µg/mL (≈ 0.665 to 2.66 µM).
On to `COc1c2ccc3c(=O)c4cc(C)n(CC(=O)N5CC(C(=O)O)NC(=O)C5C)c(=O)c4c(=O)c3c2c(O)c2c(=O)c3cccc(OCC(=O)O)c3c(=O)c12` (centres unmarked) [Example 9D], for which the MIC with Enterococcus faecalis (setting [2]) is 8 µg/mL (≈ 10.8 µM); in experiment [1] (setting [3]), more than 64 µg/mL; in experiment [1] (setting [4]), 64 µg/mL (≈ 86.8 µM); with Candida albicans (read-out: MIC) it was more than 64 µg/mL; in the experiment with Bacillus subtilis (read-out: MIC), 8 µg/mL (≈ 10.8 µM); in the experiment with Escherichia coli (read-out: MIC), more than 64 µg/mL. Further, the minimal inhibitory concentration (MIC) was more than 64 µg/mL against Escherichia coli (imp) and 8 to 16 µg/mL (≈ 10.8 to 21.7 µM) with Staphylococcus aureus (setting [5]).
Take `COc1c2ccc3c(=O)c4cc(C)n(CC(=O)N5CC(C(=O)O)NC(=O)C5C)c(=O)c4c(=O)c3c2c(O)c2c(=O)c3cccc(O)c3c(=O)c12` (centres unmarked) [Example 3, P175-A]: the MIC in the experiment with Enterococcus faecalis (setting [2]) was less than 0.06 µg/mL; in experiment [1] (setting [3]) it was 16 µg/mL (≈ 23.5 µM); in experiment [1] (setting [4]), 8 µg/mL (≈ 11.8 µM); with Candida albicans (read-out: MIC), more than 64 µg/mL; in the experiment with Bacillus subtilis (read-out: MIC), 0.12 µg/mL (≈ 0.177 µM); in the experiment on Escherichia coli (read-out: MIC), more than 64 µg/mL. Moreover, the minimum inhibitory concentration (MIC) against Escherichia coli (imp) was 8 µg/mL (≈ 11.8 µM); with Staphylococcus aureus (setting [5]), 0.06 to 0.25 µg/mL (≈ 0.0883 to 0.368 µM).
